Reference: US20260258025A1, “INHIBITORS OF TDP-43 AND TAU AGGREGATION” (Aquinnah Pharmaceuticals, inc., priority 2023, published 2026)
Where a SMILES comes first, the peptide text is derived from it. The star is where a group is joined. Cbz = O=C(OCc1ccccc1)*

Columns and labels:
Type in all cases: cell-based
TDP-43 splicing function = assay: qRT-PCR of TDP-43 sentinel transcripts (STMN2, ELAVL3, PFKP) in MG-132 challenged human motor neurons; design: effect of stressor on splicing changes associated with TDP-43 loss of function (qPCR): dose or concentration left out as unconfirmed; conditions: human motor neurons, relative to unstressed
Experimental: (§1) Cell culture and differentiation of iPS Cells into motor neurons. Pluripotent stem cells were grown with mTeSR Plus medium on tissue culture dishes coated with Matrigel, and maintained in 5% CO2 incubators at 37° C. Stem cells were passaged as small aggregates of cells after 1 mM EDTA treatment. […] was added to the cultures for 16-24 h after dissociation to prevent cell death. The iP11NA iPS cell line was acquired from ALSTEM. This cell line was generated from pre-made footprint-free human iPS cells with DOX inducible Ngn2 that has been stably integrated into the human AAVS1 “Safe Harbor” site, and provides a convenient means to differentiate human iPS cells into neurons rapidly and efficiently. Motor neuron differentiation was achieved using a modified 5-day strategy.
(§2) This approach relies on neural induction through small molecule inhibition of SMAD signaling, accelerated neural differentiation through forced Ngn2 expression, and motor neuron patterning through the activation of retinoic acid and Sonic Hedgehog signaling pathways. In brief, pluripotent stem cells were dissociated to single cells using accutase and plated at a density of 80,000 cells per cm^2 on Matrigel-coated culture plates with mTeSR Plus medium supplemented with ROCK inhibitor (10 μM Y-27632, ATCC). When cells reached 50% confluency, medium was changed to differentiation medium BrainPhys medium supplemented with N2-A, SM1, […]. This time point was defined as day 0 (d0) of motor neuron differentiation. Treatment with small molecules was carried out as follows: 2 μg/mL Doxycyline, 10 μM SB431542, 100 nM LDN-193189, […] and 1 μM Smoothend agonist and 10 uM Edu. The full list of materials and their descriptions is included below in Table 5.
Total RNA was isolated from d14 motor neurons for qRT-PCR assays using TaqMan™ Fast Advanced Cells-to-CT™ Kit according to manufacturer's instructions. 7500 neurons per well of 96-well culture were routinely used for processing. qRT-PCR was then performed using multiplex assays from IDT using PrimeTime™ Gene Expression Master Mix (IDT) on a QuantStudio6Pro system. Quantitative levels for all genes assayed were normalized using GAPDH expression. […] Primers and probes used in this study are in Table 5.
To this end, we first examined whether proteasome inhibition, which triggers TDP-43 nuclear depletion, also leads to splicing defects associated with TDP-43 loss-of function. For comparison, we also treated human motor neurons with puromycin, which recruits TDP-43 to stress granules in the cytoplasm. We chose to analyze several transcripts that have relevant connections to ALS biology including STMN26,12, PFKP19, and ELAVL320,21. We used quantitative reverse transcription-polymerase chain reaction (qRT-PCR) to validate that in MG-132-treated motor neurons these transcripts were altered like in ALS patients.
Using this method, we next obtained RNA from independent motor neuron biological replicates after proteasome inhibition and Compound 183 treatment to determined by qRT-PCR the relative abundance of these transcripts. […] A dose-responsive effect was further tested for Compound 183 using qRT-PCR in this model. […] Collectively, the data support the notion that Compound 183 promotes TDP-43 nuclear function under proteotoxic stress.

[1] = tested on: TDP-43 nuclear localization; assay: TDP-43 localization analysis by immunofluorescence in MG-132 challenged iP11NA human motor neurons; conditions: 1 μM MG-132 for 20 hours, human motor neurons, vs unstressed
Experimental: as §1
as §2, with “The full list of materials and their descriptions is included below in Table 5.” left out
A dose-responsive effect was further tested for Compound 183 using quantitative imaging analysis on the CellInsight™ CX7 High Content Analysis Platform. By comparing the intensity of TDP-43 staining in the nucleus and cytoplasm of human motor neurons, we determined Compound 183 could maintain nuclear TDP-43 from 370 nM-10 μM in the proteasome challenged motor neurons (see FIG. 2).

insoluble TDP-43 = assay: Cell fractionation and immunoblot of TDP-43 in MG-132 challenged human motor neurons; conditions: MG-132 1 μM, vs unstressed
Experimental: Cell culture and differentiation of iPS Cells into motor neurons. Pluripotent stem cells were grown with mTeSR Plus medium on tissue culture dishes coated with Matrigel, and maintained in 5% CO2 incubators at 37° C. Stem cells were passaged as small aggregates of cells after 1 mM EDTA treatment. […] was added to the cultures for 16-24 h after dissociation to prevent cell death. The iP11NA iPS cell line was acquired from ALSTEM. This cell line was generated from pre-made footprint-free human iPS cells with DOX inducible Ngn2 that has been stably integrated into the human AAVS1 “Safe Harbor” site, and provides a convenient means to differentiate human iPS cells into neurons rapidly and efficiently. Motor neuron differentiation was achieved using a modified 5-day strategy. […]
For analysis of TDP-43 cellular distribution, d14 motor neurons were lysed with Thermo Subcellular Protein Fractionation Kit for cultured cells and processed according to the manufacturer's instructions. […] Fluorescent secondary antibodies were used for band detection and the Kaleidoscope precision plus protein ladder for size estimation. iBright FL1500 imaging system and software were used to quantitate protein band signal. […]

TDP-43 aggregation = TDP-43 aggregation assay in SY5Y TDP-43WT cells (high content imaging); conditions: Homo sapiens, tetracycline induction 24 hrs, 1 hour compound pre-treatment, sodium arsenite 23 hrs, 8-point dose curve, percentage of cells with TDP-43 aggregates, read-out: IC50, Inhibition of TDP-43 Aggregation
Summary of the method: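 Tetracycline-inducible eGFP-tagged wild-type human TDP-43 in SH-SY5Y cells, induced 24 h ([…]), compound pre-treated 1 h, then sodium arsenite […] for 23 h. Fixed cells imaged; percentage of DAPI-counted cells with aggregates gives IC50 from 8-point curves.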

tau stress granules = assay: SY5Y-tT1 tau arsenite assay (tau stress granules per cell); conditions: SY5Y-tT1 cells, 2 hours compound, 90 minutes arsenite, 50% reduction of granules per cell, read-out: IC50, Inhibitor Activity of Tau Stress Granules
Experimental: Example 91: In Vitro Efficacy Assay of Exemplary Compounds—SY5Y-tT1 Tau Arsenite/Thapsigargin Assay
• Before harvesting cells—checked to see if cells are ~80% confluency in their flask • 1. Aspirated growth media from flask. • 2. Added 4 mL of (0.25%) trypsin-EDTA (REF: 25200-056) • 3. Placed in 37° C. incubator for 5 minutes. • 4. Removed from incubator and added 11 mL growth media, washing any remaining cells adhered to the bottom of the flask. • 5. Transferred cell containing media to a 50 mL conical tube and spun for 5 minutes at 800 rpm. • 6. Aspirated supernatant and added 5 mL of growth media to cell pellet, triturating to make a homogenous cell solution. • 7. After counting cells, followed one of these plating paradigms: • (A) If treating with arsenite, plated cells at […] with tetracycline solution (5 mg/mL) added to cell solution at 1:5000 • (B) If treating with thapsigargin, plated cells at 4,000 cells/well with tetracycline solution (5 mg/mL) added to cell solution at 1:5000 • 8. Incubated at 37° C. for 48 hours.
• Solubilized all compounds to 10 mM prior to making dilution plates • 1. To a 96-well U-bottom plate (Falcon Non-Tissue Culture Treated Plates REF: 351177) added 120 μL growth media to all 96 wells, with an additional 58.2 μL to row A. • 2. Added 1.8 μL of 10 mM compound stock to wells A1-11, adding 1.8 μL of 10 mM PERKi stock (Selleck Chemistry GSK2606414 Cat No. S7307) as the control. • 3. Serially diluted 60 μL from row A down through each row, finishing with 180 μL total volume in row H. • 4. Transferred 12.5 μL of each dilution plate well to the correlating wells in cell plate, being careful not to touch cells adhered to bottom of the plate. • 5. Incubated for 2 hours.
• 1. Added 720 μL of 0.05 M sodium arsenite solution (CAS #: 7784-46-5) to 10 mL of growth media for a final concentration of […] arsenite solution, mix well. • 2. Added 12.5 μL of arsenite solution to all wells of compounds treated plate intended for arsenite treatment. • 3. Incubated at 37° C. for 90 minutes.
• Before beginning this part of the protocol: • Made 1×PBS by diluting 10× stock (10×, Phosphate buffered saline, Fisher #BP399— • 4) in sterile deionized water. • Diluted paraformaldehyde (16% Paraformaldehyde solution, Electron Microscopy Sciences #15710-S) to 4% in 1×PBS. • Diluted Hoechst stain (Life Technologies #H3570) 1:10,000 in 1×PBS (1 μL Hoechst per 10 mL 1×PBS). • Both solutions were protected from light. • 1) After compound treatment, aspirated media from cell plates and gently added in 50 μL of 4% paraformaldehyde for 10 min protected from light at room temperature. • 2) Aspirated paraformaldehyde solution and gently added 50 μL of 1:10,000 Hoechst solution to each well and incubated for 10 min protected from light at room temperature. • 3) Aspirated Hoechst solution and gently added 100 μL 1×PBS. Cover the plate with aluminum film (VWR #60941-126). • 4) Stored at 4° C. or used immediately for imaging on ThermoFisher CX7 imager.
Exemplary compounds of the disclosed herein were evaluated for efficacy for inhibitor activity of tau stress granules in the arsenite assay and quantified as drug concentration providing a 50% reduction (IC50) of granules per cell is shown in Table 4.
In Table 4 below, A indicates an IC50 (μM)<0.5 μM, B indicates an IC50 (μM) 0.5 μM to <1 μM, C indicates an IC50 (μM) 1 μM to <2 μM, and D indicates an IC50 (μM) 2 μM to <6 μM.

SMILES | IC50 (TDP-43 aggregation) [nM] | IC50 (tau stress granules) [nM] | further results
COc1ccc(C[C@H](N)C(=O)N[C@H]2[C@@H](O)[C@H](n3cnc4c(N(C)C)ncnc43)O[C@@H]2CO)cc1 [puromycin, reference compound] |  |  | effect of stressor on splicing changes associated with TDP-43 loss of function (qPCR) (TDP-43 splicing function): failed to induce transcription changes consistent with TDP-43 loss of function
CC(C)C[C@@H](C=O)NC(=O)[C@H](CC(C)C)NC(=O)[C@H](CC(C)C)NC(=O)OCc1ccccc1 [MG-132, reference compound] (Cbz-Leu-Leu-Leu-aldehyde) |  |  | effect of stressor on nuclear TDP-43 staining (immunofluorescence) [1]: induced a loss of nuclear TDP-43 staining; effect of stressor on cryptic splicing of STMN2, ELAVL3, PFKP (qPCR) (TDP-43 splicing function; MG-132 1 μM): strong induction of cryptic splicing; effect of stressor on normal transcript levels (qPCR) (TDP-43 splicing function; MG-132 1 μM): decreased levels for normal STMN2 as well as the cryptic exon-disrupted splice junctions in PFKP and ELAVL3; effect of stressor on TDP-43 distribution between fractions (immunoblot) (insoluble TDP-43): significant change in TDP-43 distribution from the soluble, nuclear compartment to the insoluble fraction
Cc1cc(-c2ccc(C3CCN(C4CCC4)CC3)cc2)sc1C(=O)N1CC[C@H](N)C1 [Compound 181, (S)-(3-aminopyrrolidin-1-yl)(5-(4-(1-cyclobutylpiperidin-4-yl)phenyl)-3-methylthiophen-2-yl)methanone] | < 500 | 500 to 1000 | 
Cc1cc(-c2ccc(C3CCN(C)CC3)cc2)sc1C(=O)N1CC[C@H](N)C1 [Compound 201, (S)-(3-aminopyrrolidin-1-yl)(3-methyl-5-(4-(1-methylpiperidin-4-yl)phenyl)thiophen-2-yl)methanone] | < 500 | < 500 | 
CCN1CCN(c2ccc(-c3cc(C)c(C(=O)N4CC[C@H](N)C4)s3)cc2)CC1 [Compound 155, (S)-(3-aminopyrrolidin-1-yl)(5-(4-(4-ethylpiperazin-1-yl)phenyl)-3-methylthiophen-2-yl)methanone] | < 500 | 500 to 1000 | 
